Experiments:
Test in all cases: relative viability (nuclei count vs DMSO), 5 days (fraction); higher = more cells survive
NCI-H441 = test system: NCI-H441
Outline: (§1)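 Lung cancer cell lines were pin-tool dosed in 1536-well plates on the day after seeding, with either a lone drug or a fixed anchor-drug dose plus five library-drug doses (not always all listed) in √10 steps. Nuclei were counted on 4× images after 5 days. Relative viability is the ratio of treated-well to vehicle-well nuclei counts, with each value a median of duplicate plates.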

HOP-62 = test system: HOP-62
Outline: as §1

LK-2 = test system: LK-2
Outline: as §1

EMC-BAC-2 = test system: EMC-BAC-2
Outline: as §1

ABC-1 = test system: ABC-1
Outline: as §1

NCI-H1563 = test system: NCI-H1563
Outline: as §1

NCI-H1650 = test system: NCI-H1650
Outline: as §1

HARA = test system: HARA
Outline: as §1

PC-3 [JPC-3] = test system: PC-3 [JPC-3]
Outline: as §1

NCI-H727 = test system: NCI-H727
Outline: as §1

NCI-H2347 = test system: NCI-H2347
Outline: as §1

NCI-H596 = test system: NCI-H596
Outline: as §1

UMC-11 = test system: UMC-11
Outline: as §1

HCC-366 = test system: HCC-366
Outline: as §1

NCI-H3122 = test system: NCI-H3122
Outline: as §1

RERF-LC-KJ = test system: RERF-LC-KJ
Outline: as §1

SK-LU-1 = test system: SK-LU-1
Outline: as §1

NCI-H1734 = test system: NCI-H1734
Outline: as §1

NCI-H1755 = test system: NCI-H1755
Outline: as §1

NCI-H1651 = test system: NCI-H1651
Outline: as §1

COR-L23 = test system: COR-L23
Outline: as §1

NCI-H1437 = test system: NCI-H1437
Outline: as §1

CAL-12T = test system: CAL-12T
Outline: as §1

## Cc1csc(=NC2CCCCC2)n1/N=C/c1ccc(O)c(O)c1O [MIM1] + COc1cccc2cc(-c3nc([C@H]4CC[C@H](C(=O)O)CC4)n4ncnc(N)c34)[nH]c12 [OSI-027] (partner 0.5 µM)
NCI-H441; first compound 0.2 µM
  relative viability: 0.575
NCI-H441; first compound 2 µM
  relative viability: 0.625
NCI-H441; first compound 6.325 µM
  relative viability: 0.472
NCI-H441; first compound 20 µM
  relative viability: 0.191
HOP-62; first compound 0.2 µM
  relative viability: 0.848
HOP-62; first compound 0.6325 µM
  relative viability: 0.912
HOP-62; first compound 2 µM
  relative viability: 0.789
HOP-62; first compound 6.325 µM
  relative viability: 0.666
HOP-62; first compound 20 µM
  relative viability: 0.19
LK-2; first compound 0.2 µM
  relative viability: 0.247
LK-2; first compound 0.6325 µM
  relative viability: 0.201
LK-2; first compound 2 µM
  relative viability: 0.181
LK-2; first compound 6.325 µM
  relative viability: 0.169
LK-2; first compound 20 µM
  relative viability: 0.184
EMC-BAC-2; first compound 0.2 µM
  relative viability: 0.422
EMC-BAC-2; first compound 0.6325 µM
  relative viability: 0.36
EMC-BAC-2; first compound 2 µM
  relative viability: 0.357
EMC-BAC-2; first compound 6.325 µM
  relative viability: 0.344
EMC-BAC-2; first compound 20 µM
  relative viability: 0.253
ABC-1; first compound 0.2 µM
  relative viability: 0.481
ABC-1; first compound 0.6325 µM
  relative viability: 0.46
ABC-1; first compound 2 µM
  relative viability: 0.388
ABC-1; first compound 6.325 µM
  relative viability: 0.236
ABC-1; first compound 20 µM
  relative viability: 0.298
NCI-H1563; first compound 0.2 µM
  relative viability: 0.725
NCI-H1563; first compound 0.6325 µM
  relative viability: 0.821
NCI-H1563; first compound 2 µM
  relative viability: 0.688
NCI-H1563; first compound 6.325 µM
  relative viability: 0.72
NCI-H1563; first compound 20 µM
  relative viability: 0.525
NCI-H1650; first compound 0.2 µM
  relative viability: 0.653
NCI-H1650; first compound 0.6325 µM
  relative viability: 0.668
NCI-H1650; first compound 2 µM
  relative viability: 0.447
NCI-H1650; first compound 6.325 µM
  relative viability: 0.164
NCI-H1650; first compound 20 µM
  relative viability: 0.147
HARA; first compound 0.2 µM
  relative viability: 0.503
HARA; first compound 2 µM
  relative viability: 0.547
HARA; first compound 6.325 µM
  relative viability: 0.166
HARA; first compound 20 µM
  relative viability: 0.0624
PC-3 [JPC-3]; first compound 0.2 µM
  relative viability: 0.749
PC-3 [JPC-3]; first compound 0.6325 µM
  relative viability: 0.733
PC-3 [JPC-3]; first compound 2 µM
  relative viability: 0.647
PC-3 [JPC-3]; first compound 6.325 µM
  relative viability: 0.657
PC-3 [JPC-3]; first compound 20 µM
  relative viability: 0.545
NCI-H727; first compound 0.2 µM
  relative viability: 0.619
NCI-H727; first compound 0.6325 µM
  relative viability: 0.712
NCI-H727; first compound 2 µM
  relative viability: 0.599
NCI-H727; first compound 6.325 µM
  relative viability: 0.552
NCI-H727; first compound 20 µM
  relative viability: 0.338
NCI-H2347; first compound 0.2 µM
  relative viability: 0.41
NCI-H2347; first compound 0.6325 µM
  relative viability: 0.449
NCI-H2347; first compound 2 µM
  relative viability: 0.437
NCI-H2347; first compound 6.325 µM
  relative viability: 0.392
NCI-H2347; first compound 20 µM
  relative viability: 0.287
NCI-H596; first compound 0.2 µM
  relative viability: 0.622
NCI-H596; first compound 0.6325 µM
  relative viability: 0.757
NCI-H596; first compound 2 µM
  relative viability: 0.72
NCI-H596; first compound 6.325 µM
  relative viability: 0.628
NCI-H596; first compound 20 µM
  relative viability: 0.659
UMC-11; first compound 0.2 µM
  relative viability: 0.504
UMC-11; first compound 2 µM
  relative viability: 0.579
UMC-11; first compound 6.325 µM
  relative viability: 0.397
UMC-11; first compound 20 µM
  relative viability: 0.264
HCC-366; first compound 0.2 µM
  relative viability: 0.852
HCC-366; first compound 2 µM
  relative viability: 0.677
HCC-366; first compound 6.325 µM
  relative viability: 0.186
HCC-366; first compound 20 µM
  relative viability: 0.0446
NCI-H3122; first compound 0.2 µM
  relative viability: 1.04
NCI-H3122; first compound 0.6325 µM
  relative viability: 1.11
NCI-H3122; first compound 2 µM
  relative viability: 0.904
NCI-H3122; first compound 6.325 µM
  relative viability: 0.398
NCI-H3122; first compound 20 µM
  relative viability: 0.175
RERF-LC-KJ; first compound 0.2 µM
  relative viability: 0.555
RERF-LC-KJ; first compound 0.6325 µM
  relative viability: 0.629
RERF-LC-KJ; first compound 2 µM
  relative viability: 0.403
RERF-LC-KJ; first compound 6.325 µM
  relative viability: 0.313
RERF-LC-KJ; first compound 20 µM
  relative viability: 0.195
SK-LU-1; first compound 0.2 µM
  relative viability: 0.394
SK-LU-1; first compound 0.6325 µM
  relative viability: 0.389
SK-LU-1; first compound 2 µM
  relative viability: 0.41
SK-LU-1; first compound 6.325 µM
  relative viability: 0.316
SK-LU-1; first compound 20 µM
  relative viability: 0.325
NCI-H1734; first compound 0.2 µM
  relative viability: 0.666
NCI-H1734; first compound 0.6325 µM
  relative viability: 0.495
NCI-H1734; first compound 2 µM
  relative viability: 0.525
NCI-H1734; first compound 6.325 µM
  relative viability: 0.304
NCI-H1734; first compound 20 µM
  relative viability: 0.201
NCI-H1755; first compound 0.2 µM
  relative viability: 0.833
NCI-H1755; first compound 0.6325 µM
  relative viability: 0.69
NCI-H1755; first compound 2 µM
  relative viability: 0.779
NCI-H1755; first compound 6.325 µM
  relative viability: 0.703
NCI-H1755; first compound 20 µM
  relative viability: 0.223
NCI-H1651; first compound 0.2 µM
  relative viability: 0.745
NCI-H1651; first compound 0.6325 µM
  relative viability: 0.806
NCI-H1651; first compound 2 µM
  relative viability: 0.63
NCI-H1651; first compound 6.325 µM
  relative viability: 0.611
NCI-H1651; first compound 20 µM
  relative viability: 0.612
COR-L23; first compound 0.2 µM
  relative viability: 0.843
COR-L23; first compound 0.6325 µM
  relative viability: 0.955
COR-L23; first compound 2 µM
  relative viability: 0.654
COR-L23; first compound 6.325 µM
  relative viability: 0.603
COR-L23; first compound 20 µM
  relative viability: 0.382
NCI-H1437; first compound 0.2 µM
  relative viability: 0.935
NCI-H1437; first compound 0.6325 µM
  relative viability: 0.854
NCI-H1437; first compound 2 µM
  relative viability: 0.952
NCI-H1437; first compound 6.325 µM
  relative viability: 0.599
NCI-H1437; first compound 20 µM
  relative viability: 0.186
CAL-12T; first compound 0.2 µM
  relative viability: 0.607
CAL-12T; first compound 0.6325 µM
  relative viability: 0.579
CAL-12T; first compound 2 µM
  relative viability: 0.57
CAL-12T; first compound 6.325 µM
  relative viability: 0.445
CAL-12T; first compound 20 µM
  relative viability: 0.143

Reference: the supplement of paper PMC10307832
